# Assays:
# green foxtail = experiment: Test Example 3: herbicidal test by upland soil treatment; format: in vivo, Setaria viridis L.; parameters: key: 5: Withered; 4.5: Herbicidal effect (or phytotoxicity) in a range of 90 to 99%; 4: Herbicidal effect (or phytotoxicity) in a range of 80 to 89%; 3.5: Herbicidal effect (or phytotoxicity) in a range of 70 to 79%; 3: Herbicidal effect (or phytotoxicity) in a range of 60 to 69%; 2.5: Herbicidal effect (or phytotoxicity) in a range of 50 to 59%; 2: Herbicidal effect (or phytotoxicity) in a range of 40 to 49%; 1.5: Herbicidal effect (or phytotoxicity) in a range of 30 to 39%; 1: Herbicidal effect (or phytotoxicity) in a range of 20 to 29%; 0.5: Herbicidal effect (or phytotoxicity) in a range of 1 to 19%; 0: No herbicidal effect (or no phytotoxicity); settings: evaluated twenty days after application
# Source text: (§1) Into each plastic pot of 600 cm^2, upland soil was filled, then seeds of barnyardgrass, crabgrass, green foxtail, redroot pigweed, rice flatsedge, rice, wheat, maize, soybean, cotton and sugar beet were sown, and they were covered with soil. A predetermined amount of the wettable powder prepared from the test compound in accordance with Formulation Example 3 and diluted with water, was uniformly applied to the surface of the soil at an application rate of 1000 liter/hectare by means of a small size spray. They were grown in a greenhouse, and twenty days after the application, the herbicidal effects and phytotoxicity were evaluated in accordance with the standards as identified in Table 5.
# barnyardgrass [1] = experiment: Test Example 4: herbicidal test by upland foliage treatment; format: in vivo, Echinochloa crus-galli L.; parameters: key: 5: Withered; 4.5: Herbicidal effect (or phytotoxicity) in a range of 90 to 99%; 4: Herbicidal effect (or phytotoxicity) in a range of 80 to 89%; 3.5: Herbicidal effect (or phytotoxicity) in a range of 70 to 79%; 3: Herbicidal effect (or phytotoxicity) in a range of 60 to 69%; 2.5: Herbicidal effect (or phytotoxicity) in a range of 50 to 59%; 2: Herbicidal effect (or phytotoxicity) in a range of 40 to 49%; 1.5: Herbicidal effect (or phytotoxicity) in a range of 30 to 39%; 1: Herbicidal effect (or phytotoxicity) in a range of 20 to 29%; 0.5: Herbicidal effect (or phytotoxicity) in a range of 1 to 19%; 0: No herbicidal effect (or no phytotoxicity)
# Experimental: Into each plastic pot of 120 cm^2, upland soil was filled, then seeds of barnyardgrass, crabgrass, redroot pigweed and rice flatsedge were sown, and they were grown in a greenhouse until barnyardgrass. reached 3-leaf stage. Each wettable powder prepared from the test compound in accordance with Formulation Example 3 was diluted with water to give the amount of the active ingredient corresponding to 4 kg/hectare, and the diluted solution was uniformly sprayed at an application rate of 1000 liter/hectare from the top of plants by means of a small size spray, when barnyardgrass was in the 3-leaf stage. They were grown in a greenhouse, and twenty days after the application, the herbicidal effects were evaluated in accordance with the standards as identified in Table 5.
# barnyardgrass [2] = experiment: Test Example 2: herbicidal test for selectivity between rice and barnyardgrass (herbicidal effects); format: in vivo, Echinochloa crus-galli L.; settings: barnyardgrass of 2-leaf stage, thirty days after application
# Experimental: (§2) Into each 1/5000 are Wager pot, paddy soil was filled and puddled, then seeds of barnyardgrass were sown and grown until they reached 2-leaf stage. The barnyardgrass of 2-leaf stage was thinned out to adjust the number of barnyardgrass to fifteen per pot, and rice seedlings of 2-leaf stage were transplanted in the same pot. […] Thereafter, they were grown in a green house, and thirty days after the application, the herbicidal effects and phytotoxicity were evaluated in accordance with the standards as identified in Table 5.
# sugar beet = experiment: Test Example 3: herbicidal test by upland soil treatment (phytotoxicity); format: in vivo; settings: evaluated twenty days after application
# Source text: as §1
# soybean = experiment: as above; format: in vivo; parameters: key: 5: Withered; 4.5: Herbicidal effect (or phytotoxicity) in a range of 90 to 99%; 4: Herbicidal effect (or phytotoxicity) in a range of 80 to 89%; 3.5: Herbicidal effect (or phytotoxicity) in a range of 70 to 79%; 3: Herbicidal effect (or phytotoxicity) in a range of 60 to 69%; 2.5: Herbicidal effect (or phytotoxicity) in a range of 50 to 59%; 2: Herbicidal effect (or phytotoxicity) in a range of 40 to 49%; 1.5: Herbicidal effect (or phytotoxicity) in a range of 30 to 39%; 1: Herbicidal effect (or phytotoxicity) in a range of 20 to 29%; 0.5: Herbicidal effect (or phytotoxicity) in a range of 1 to 19%; 0: No herbicidal effect (or no phytotoxicity); settings: evaluated twenty days after application
# Source text: as §1
# maize = experiment: as above; format: in vivo; parameters: key: 5: Withered; 4.5: Herbicidal effect (or phytotoxicity) in a range of 90 to 99%; 4: Herbicidal effect (or phytotoxicity) in a range of 80 to 89%; 3.5: Herbicidal effect (or phytotoxicity) in a range of 70 to 79%; 3: Herbicidal effect (or phytotoxicity) in a range of 60 to 69%; 2.5: Herbicidal effect (or phytotoxicity) in a range of 50 to 59%; 2: Herbicidal effect (or phytotoxicity) in a range of 40 to 49%; 1.5: Herbicidal effect (or phytotoxicity) in a range of 30 to 39%; 1: Herbicidal effect (or phytotoxicity) in a range of 20 to 29%; 0.5: Herbicidal effect (or phytotoxicity) in a range of 1 to 19%; 0: No herbicidal effect (or no phytotoxicity); settings: evaluated twenty days after application
# Source text: as §1
# wheat = experiment: as above; format: in vivo; parameters: key: 5: Withered; 4.5: Herbicidal effect (or phytotoxicity) in a range of 90 to 99%; 4: Herbicidal effect (or phytotoxicity) in a range of 80 to 89%; 3.5: Herbicidal effect (or phytotoxicity) in a range of 70 to 79%; 3: Herbicidal effect (or phytotoxicity) in a range of 60 to 69%; 2.5: Herbicidal effect (or phytotoxicity) in a range of 50 to 59%; 2: Herbicidal effect (or phytotoxicity) in a range of 40 to 49%; 1.5: Herbicidal effect (or phytotoxicity) in a range of 30 to 39%; 1: Herbicidal effect (or phytotoxicity) in a range of 20 to 29%; 0.5: Herbicidal effect (or phytotoxicity) in a range of 1 to 19%; 0: No herbicidal effect (or no phytotoxicity); settings: evaluated twenty days after application
# Source text: as §1
# Paddy rice = experiment: Test Example 2: herbicidal test for selectivity between rice and barnyardgrass (phytotoxicity); format: in vivo; settings: transplanted rice seedlings of 2-leaf stage, thirty days after application
# Experimental: as §2
# [3] = active ingredient 4 kg/hectare, foliage spray 1000 liter/hectare at 3-leaf stage of barnyardgrass, twenty days after application
# [4] = upland foliage treatment, 4 kg/hectare active ingredient, sprayed at 1000 liter/hectare at barnyardgrass 3-leaf stage, evaluated twenty days after application
Compound,Herbicidal effects Barnyard-grass (barnyardgrass [1]; [3]),Herbicidal effects Barnyard grass (barnyardgrass [2]; Dose 0.25 kg/Ha),Herbicidal effects Barnyard grass (barnyardgrass [2]; Dose 0.5 kg/Ha),Phytotoxicity Paddy rice (Paddy rice; Dose 0.25 kg/Ha),Phytotoxicity Paddy rice (Paddy rice; Dose 0.5 kg/Ha),Herbicidal effects Barnyard-grass (barnyardgrass [1]; [4]),further results
"CN(C)C(=O)NOc1cc(Cl)ccc1Cl [Compound No. 1, 3-(2,5-Dichlorophenoxy)-1,1-dimethyl urea]",4 (Herbicidal effect (or phytotoxicity) in a range of 80 to 89%),5,5,0,0,–,Herbicidal effects Green foxtail (green foxtail; Dose 1 kg/HA): 5; Herbicidal effects Green foxtail (green foxtail; Dose 4 kg/HA): 5; Herbicidal effects Barnyard grass (barnyardgrass [2]; Dose 1 kg/Ha): 5; Phytotoxicity Sugar beet (sugar beet; Dose 1 kg/HA): 2 (Herbicidal effect (or phytotoxicity) in a range of 40 to 49%); Phytotoxicity Sugar beet (sugar beet; Dose 4 kg/HA): 3 (Herbicidal effect (or phytotoxicity) in a range of 60 to 69%); Phytotoxicity Soybean (soybean; Dose 1 kg/HA): 0; Phytotoxicity Soybean (soybean; Dose 4 kg/HA): 0; Phytotoxicity Maize (maize; Dose 1 kg/HA): 0; Phytotoxicity Maize (maize; Dose 4 kg/HA): 0; Phytotoxicity Wheat (wheat; Dose 1 kg/HA): 0; Phytotoxicity Wheat (wheat; Dose 4 kg/HA): 0; Phytotoxicity Paddy rice (Paddy rice; Dose 1 kg/Ha): 1 (Herbicidal effect (or phytotoxicity) in a range of 20 to 29%)
"CC(C)N(C)C(=O)NOc1cc(Cl)cc(Cl)c1 [Compound No. 186, 3-(3,5-Dichlorophenoxy)-1-isopropyl-1-methyl urea trichloroacetate]",5,5,5,0,1 (Herbicidal effect (or phytotoxicity) in a range of 20 to 29%),–,–
"CON(C)C(=O)NOc1cc(Cl)ccc1Cl [Compound No. 242, 3-(2,5-Dichlorophenoxy)-1-methoxy-1-methyl urea]",–,–,–,–,–,4 (Herbicidal effect (or phytotoxicity) in a range of 80 to 89%),–
COCCNC(=O)NOc1cc(Cl)ccc1Cl [Compound No. 243],–,–,–,–,–,5,–

# From EP0183174A2, “Substituted phenoxy urea, processes for its preparation and herbicide containing it as active ingredient” (KUMIAI CHEMICAL INDUSTRY CO., LTD., priority 1984, dated 1986)
